In the NIST ThermoML archive (doi:10.1016/j.tca.2011.10.013):

Assay: mn = molality of the nth substance listed, in mol/kg
Conditions: 101 kPa, Liquid; for speed of sound: Sing-around technique in a fixed-path interferometer; for mass density: Vibrating tube method

O=C[C@H](O)[C@@H](O)[C@H](O)[C@H](O)CO [D-glucose] + O
m1 = 1.13
Conditions | mass density [kg/m3] | speed of sound [m/s]
298.15 K | 1065.07 | 1564.8
303.15 K | 1063.3 | 1574.3
308.15 K | 1061.36 | 1582.4
313.15 K | 1059.24 | 1589.1
318.15 K | 1056.98 | 1594.4
323.15 K | 1054.25 | 1598.5

OC[C@H]1O[C@@](CO)(O[C@H]2O[C@H](CO)[C@@H](O)[C@H](O)[C@H]2O)[C@@H](O)[C@@H]1O [D-sucrose] + O
m1 = 1.274
Conditions | mass density [kg/m3] | speed of sound [m/s]
298.15 K | 1127.37 | 1607.9
303.15 K | 1125.37 | 1615.6
308.15 K | 1123.2 | 1621.9
313.15 K | 1120.73 | 1627
318.15 K | 1118.18 | 1630.8
323.15 K | 1115.44 | 1633.3
